Results as given in patent US9169241B2, “Quinolinyloxyphenylsulfonamides” (Max-Planck-Gesellschaft Zur Forderung der Wissenschaften …, priority 2009, dated 2015).

What was measured:
[1] = biological target: T1, wild type AXL (wtAXL) receptor tyrosine kinase (Homo sapiens, UniProt P30530); experiment: NIH-3T3-AXL cellular kinase assay (pY-AXL-ELISA); format: cell-based; conditions: NIH-3T3-AXL (clone 22) cells, serum depleted, compounds 1 h; Table Ia
T1 construct: WtAXL cDNA was cloned into vector pLXSN(ESK) and transfected into Phoenix E packaging cells; expressed in transfected cells; host or cells: NIH3T3 N7 (mouse fibroblasts), retrovirally infected, clone 22
T1 sequence (P30530 26-894): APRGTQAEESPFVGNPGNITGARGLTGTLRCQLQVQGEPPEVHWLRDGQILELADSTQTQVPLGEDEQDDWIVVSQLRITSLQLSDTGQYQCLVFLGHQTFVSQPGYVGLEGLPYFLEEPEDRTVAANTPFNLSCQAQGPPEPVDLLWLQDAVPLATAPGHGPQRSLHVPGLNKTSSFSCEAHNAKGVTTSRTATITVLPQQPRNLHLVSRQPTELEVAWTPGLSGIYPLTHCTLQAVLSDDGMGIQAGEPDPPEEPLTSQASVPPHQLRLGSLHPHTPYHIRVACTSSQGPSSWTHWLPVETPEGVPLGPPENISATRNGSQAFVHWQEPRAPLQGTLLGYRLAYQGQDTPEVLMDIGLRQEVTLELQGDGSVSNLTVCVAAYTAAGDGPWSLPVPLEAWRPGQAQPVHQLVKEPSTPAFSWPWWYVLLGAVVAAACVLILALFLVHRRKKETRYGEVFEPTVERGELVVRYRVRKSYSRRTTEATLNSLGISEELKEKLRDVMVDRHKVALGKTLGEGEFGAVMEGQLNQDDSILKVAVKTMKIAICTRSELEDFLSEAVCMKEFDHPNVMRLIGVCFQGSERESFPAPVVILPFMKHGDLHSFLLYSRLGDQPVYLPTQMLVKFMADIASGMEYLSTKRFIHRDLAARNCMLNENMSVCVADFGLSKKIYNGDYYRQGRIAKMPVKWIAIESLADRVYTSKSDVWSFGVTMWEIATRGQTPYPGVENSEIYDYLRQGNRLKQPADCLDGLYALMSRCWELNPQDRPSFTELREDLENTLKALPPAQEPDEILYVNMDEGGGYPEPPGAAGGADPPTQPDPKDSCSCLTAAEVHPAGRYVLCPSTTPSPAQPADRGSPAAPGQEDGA
Experimental: WtAXL cDNA was cloned into vector pLXSN(ESK) and transfected into Phoenix E packaging cells. The viral supernatant was collected and used to infect target cells NIH3T3 N7. Monoclonal NIH3T3-AXL cell lines stably expressing wtAXL were generated by selecting retrovirally infected cells in medium containing puromycin (2 μg/ml) and subsequent clonal separation.
Serial dilutions of compounds were added, and the cells were further incubated for 1 h. Cells were washed with PBS and lysed on ice in 500 μl lysis buffer (50 mM HEPES (pH 7.5), 150 mM NaCl, 1 mM EGTA, 10% Glycerol, 1% Triton X-100, 100 mM NaF, 10 mM Na4P2O7.10H2O, 1 mM Na3VO4, 1 mM phenylmethylsulfonyl fluoride, and […]) for 15 min. The cell lysate were used for phosphotyrosine AXL enzyme-linked immunosorbant assay (pY-AXL-ELISA). […] Subsequently 96-well plates were blocked with PBS-0.05% Tween®20+10% FBS for 4 h at 37° C. Plates were washed 5 times with PBS-0.05% Tween®20 and 95 μl of lysate was transferred per well for incubation overnight at 4° C. Plates were washed 5 times with PBS-0.05% Tween®20 (Sigma, Steinheim, Germany). For detection of phosphorylated tyrosine we used homemade biotynilated 4G10-antibody (0.5 μg/ml) in PBS-0.05% Tween®20+10% FBS (100 μl/well) and incubated the 96-well plate for 2 h at room temperature. The anti-phosphotyrosine mouse monoclonal antibody 4G10 was biotynilated with Sulfo-NHS®-Biotin according to the suppliers protocol (Pierce, Rockford, Ill., USA) and purified by Mirco Bio-Spin 6 Chromatograpy Columns (BIO RAD Laboratories, Inc., Hercules, Calif., USA) using PBS as diluent. Plates were washed 5 times with PBS-0.05% Tween®20. For biding to biotin Alkaline Phosphatase Conjugated Strepavidin SA110 (Millipore, Billerica, Mass., USA) (1:4000) was used in PBS-0.05% Tween20+10% FBS (100 μl/well) and incubated for 30 min at room temperature. Plates were washed 5 times with PBS-0.05% Tween20. For fluorimetric detection of alkaline phosphatase AttoPhos Substrate Set (Roche diagnostics GmbH, Mannheim, Germany) was used (100 μl/well). The fluorimetric signal was quantified after 90 min at 430/560 nm wavelength using a TECAN Ultra Evolution plate reader (Tecan Deutschland GmbH, Crailsheim, Germany).

Hs578T [2] = experiment: Cell vitality assay (ATP assay, CellTiter-Glo); format: cell-based; conditions: Homo sapiens, Hs-578T; HS578T cell line, 72 h; Table Ib; read-out: IC50 ATP-Assay HS578T after 72 h
Outline: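 Steps: seed 1000 cells per well; add compound (0.195–12.5 μM, 7 points) or DMSO; incubate 72 h; equilibrate to room temperature ~30 min; add reagent, shake 2 min, stand 10 min; read luminescence. IC50 relative to DMSO-control ATP.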

Hs578T [3] = experiment: Wound healing migration assay; format: cell-based; conditions: Homo sapiens, Hs-578T; HS578T cell line; Table Ib
Outline: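 Cells seeded at 150000/24 well, grown to monolayer overnight, scratched with a pipette tip, then treated with compound at 12.5, 6.25 or 3.125 μM versus DMSO. Stopped by crystal violet fixation at 48-72 h once control wounds closed; IC50 taken as 50% wound size between t0 and t48 or t72.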

Hs578T [4] = experiment: Matrigel outgrowth assay/branching assay; format: cell-based; conditions: Homo sapiens, Hs-578T; HS578T cell line; Table Ib; read-out: Total branching inhibition in Matrigel HS578T
Outline: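 Read-out: microscopic images of invasive branching structures at 48 h, 72 h and 96 h. Cells sat on a 3 mg/ml Matrigel layer (set 1 h, 37° C) with compound at 3.125, 1.56 and 0.78 μM or DMSO. A concentration counts as positive only with complete branching inhibition.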

| Compound | IC50 [1] | IC50 (Hs578T [2]) | IC50 (Hs578T [3]) | IC50 (Hs578T [4]) | melting point |
| --- | --- | --- | --- | --- | --- |
| COc1ccc2nccc(Oc3ccc(NS(=O)(=O)c4ccccc4OC(F)(F)F)cc3F)c2c1 [Example 202, N-[3-Fluoro-4-(6-methoxy-quinolin-4-yloxy)-phenyl]-2-trifluoromethoxy-benzenesulfonamide] | 0.5 to 3 µM | 12.5 to 50 µM | 12.5 to 50 µM | 10 to 25 µM | 175 to 176 °C |
| COc1cc2c(Oc3cccc(NS(=O)(=O)c4cc(Cl)sc4Cl)c3)ccnc2cc1OCCCN1CCN(C)CC1 [Example 134, 2,5-Dichloro-thiophene-3-sulfonic acid (3-{6-methoxy-7-[3-(4-methyl-piperazin-1-yl)-propoxy]-quinolin-4-yloxy}-phenyl)-amide] | 0.5 to 3 µM | ≤ 12.5 µM | ≤ 12.5 µM | ≤ 10 µM | 177 to 178 °C |
| COc1cc2c(Oc3ccc(NS(=O)(=O)c4ccc(Cl)c(Cl)c4)cc3F)ccnc2cc1OCCCN1CCCC(C)C1 (centres unmarked) [Example 52, 3,4-Dichloro-N-(3-fluoro-4-{6-methoxy-7-[3-(3-methyl-piperidin-1-yl)-propoxy]-quinolin-4-yloxy}-phenyl)-benzenesulfonamide] | < 0.5 µM | ≤ 12.5 µM | ≤ 12.5 µM | ≤ 10 µM | 123 to 124 °C |
| COc1cc2c(Oc3cccc(NS(=O)(=O)c4cc(Cl)ccc4Cl)c3)ccnc2cc1OCCCN1CCN(C)CC1 [Example 127, 2,5-Dichloro-N-(3-{6-methoxy-7-[3-(4-methyl-piperazin-1-yl)-propoxy]-quinolin-4-yloxy}-phenyl)-benzenesulfonamide] | 0.5 to 3 µM | ≤ 12.5 µM | ≤ 12.5 µM | ≤ 10 µM | 111 to 113 °C |
| COc1cc2c(Oc3ccc(NS(=O)(=O)c4csc5ccccc45)cc3F)ccnc2cc1OCCCN1CCC(C)CC1 [Example 115, Benzo[b]thiophene-3-sulfonic acid (3-fluoro-4-{6-methoxy-7-[3-(4-methyl-piperidin-1-yl)-propoxy]-quinolin-4-loxy}-phenyl)-amide] | < 0.5 µM | ≤ 12.5 µM | ≤ 12.5 µM | ≤ 10 µM | 132 to 135 °C |
| COc1cc2c(Oc3ccc(NS(=O)(=O)c4csc5ccccc45)cc3Cl)ccnc2cc1OCCCN1CCN(C)CC1 [Example 117, Benzo[b]thiophene-3-sulfonic acid (3-chloro-4-{6-methoxy-7-[3-(4-methyl-piperazin-1-yl)-propoxy]-quinolin-4-yloxy}-phenyl)-amide] | < 0.5 µM | ≤ 12.5 µM | ≤ 12.5 µM | 10 to 25 µM | 98 to 101 °C |
| COc1cc2c(Oc3ccc(Cl)c(NS(=O)(=O)c4cc(F)ccc4F)c3)ccnc2cc1OCCCN1CCC(C)CC1 [Example 193, N-(2-Chloro-5-{6-methoxy-7-[3-(4-methyl-piperidin-1-yl)-propoxy]-quinolin-4-yloxy}-phenyl)-2,5-difluoro-benzenesulfonamide] | 0.5 to 3 µM | 12.5 to 50 µM | ≤ 12.5 µM | 10 to 25 µM | 206 to 208 °C |
| COc1cc2c(Oc3ccc(NS(=O)(=O)c4c(Cl)csc4Cl)cc3F)ccnc2cc1OCCCN1CCCCC1C (centres unmarked) [Example 146, 2,4-Dichloro-thiophene-3-sulfonic acid (3-fluoro-4-{6-methoxy-7-[3-(2-methyl-piperidin-1-yl)-propoxy]-quinolin-4-yloxy}-phenyl)-amide] | < 0.5 µM | ≤ 12.5 µM | ≤ 12.5 µM | 10 to 25 µM | 131 to 132 °C |
| COc1cc2c(Oc3ccc(NS(=O)(=O)c4ccco4)cc3F)ccnc2cc1OCCCN(C)C [Example 185, Furan-2-sulfonic acid {4-[7-(3-dimethylamino-propoxy)-6-methoxy-quinolin-4-yloxy]-3-fluoro-phenyl}-amide] | 0.5 to 3 µM | ≤ 12.5 µM | 12.5 to 50 µM | 10 to 25 µM | 185 to 187 °C |
| COc1cc2c(Oc3ccc(NS(=O)(=O)c4cc(Cl)ccc4Cl)cc3C)ccnc2cc1OCCCN1CCC(C)CC1 [Example 175, 2,5-Dichloro-N-(4-{6-methoxy-7-[3-(4-methyl-piperidin-1-yl)-propoxy]-quinolin-4-yloxy}-3-methyl-phenyl)-benzenesulfonamide] | 0.5 to 3 µM | ≤ 12.5 µM | ≤ 12.5 µM | ≤ 10 µM | 187 to 188 °C |
| COc1cc2c(Oc3ccc(Cl)c(NS(=O)(=O)c4c(F)cccc4F)c3)ccnc2cc1OCCCN1CCC(C)CC1 [Example 194, N-(2-Chloro-5-{6-methoxy-7-[3-(4-methyl-piperidin-1-yl)-propoxy]-quinolin-4-yloxy}-phenyl)-2,6-difluoro-benzenesulfonamide] | 0.5 to 3 µM | 12.5 to 50 µM | 12.5 to 50 µM | 10 to 25 µM | 222 to 226 °C |
| COc1cc2c(Oc3ccc(NS(=O)(=O)c4ccccc4Cl)cc3F)ccnc2cc1OCCN1CCOCC1 [Example 108, 2-Chloro-N-{3-fluoro-4-[6-methoxy-7-(2-morpholin-4-yl-ethoxy)-quinolin-4-yloxy]-phenyl}-benzenesulfonamide] | < 0.5 µM | ≤ 12.5 µM | 12.5 to 50 µM | 10 to 25 µM | 180 to 181 °C |
| COc1cc2c(Oc3ccc(NS(=O)(=O)c4ccccc4OC(F)(F)F)cc3C)ccnc2cc1OCCCN1CCC(C)CC1 [Example 174, N-(4-{6-Methoxy-7-[3-(4-methyl-piperidin-1-yl)-propoxy]-quinolin-4-yloxy}-3-methyl-phenyl)-2-trifluoromethoxy-benzenesulfonamide] | 0.5 to 3 µM | ≤ 12.5 µM | ≤ 12.5 µM | ≤ 10 µM | 168 to 169 °C |
